Patent publication US12077503B2, “Substituted cyclic amides and their use as herbicides” (FMC CORPORATION, priority 2015, dated 2024)

Legend:
Type in all cases: in vivo
[1] = test system: barnyardgrass (Echinochloa crus-galli); test: Test G Pre-Emergence Protocol; conditions: Echinochloa crus-galli, pre-emergence, 312 h, evaluated after 13 days; for pest or weed control at 15.625 g/ha: 15.625 g ai/ha, read-out: Barnyard grass damage rating (100=total damage to plant; 0=no damage to plant); for pest or weed control at 62.5 g/ha: 62.5 g ai/ha, 100=total damage to plant, 0=no damage to plant, read-out: plant damage rating, Barnyardgrass; for pest or weed control at 250 g/ha: 250 g ai/ha, read-out: Barnyardgrass damage rating (100=total damage to plant; 0=no damage to plant)
Summary of the method: (§1)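 Spraying took place one day after sowing, at 15.625, 62.5 or 250 g/ha, using an acetone/water (50:50) spray solution containing 0.5% Tween 20. Plants were kept under glasshouse conditions (24/16 °C, 14 h light, 65% humidity, watered twice daily), and injury was rated 0–100 at day 13.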

[2] = test system: redroot pigweed (Amaranthus retroflexus); test: Test G Pre-Emergence Protocol; conditions: Amaranthus retroflexus, pre-emergence, 312 h, evaluated after 13 days; for pest or weed control at 15.625 g/ha: 15.625 g ai/ha; for pest or weed control at 15.625 g/ha / pest or weed control at 250 g/ha: read-out: Pigweed, Redroot damage rating (100=total damage to plant; 0=no damage to plant); for pest or weed control at 62.5 g/ha: 62.5 g ai/ha, 100=total damage to plant, 0=no damage to plant, read-out: plant damage rating, Pigweed, Redroot; for pest or weed control at 250 g/ha: 250 g ai/ha
Summary of the method: as §1

[3] = test system: ivy-leaved morning glory (Ipomoea hederacea); test: Test G Pre-Emergence Protocol; conditions: Ipomoea, pre-emergence, 312 h, evaluated after 13 days; for pest or weed control at 15.625 g/ha: 15.625 g ai/ha, read-out: Morning-glory, Ivy-leaved damage rating (100=total damage to plant; 0=no damage to plant); for pest or weed control at 62.5 g/ha: 62.5 g ai/ha, 100=total damage to plant, 0=no damage to plant, read-out: plant damage rating, Morningglory, Ivy-leaved; for pest or weed control at 250 g/ha: 250 g ai/ha, read-out: Morningglory, Ivy-leaved damage rating (100=total damage to plant; 0=no damage to plant)
Summary of the method: as §1

[4] = test system: velvetleaf (Abutilon theophrasti); test: Test G Pre-Emergence Protocol; conditions: Abutilon theophrasti, pre-emergence, 312 h, evaluated after 13 days; for pest or weed control at 15.625 g/ha: 15.625 g ai/ha; for pest or weed control at 15.625 g/ha / pest or weed control at 250 g/ha: read-out: Velvetleaf damage rating (100=total damage to plant; 0=no damage to plant); for pest or weed control at 62.5 g/ha: 62.5 g ai/ha, 100=total damage to plant, 0=no damage to plant, read-out: plant damage rating, Velvetleaf; for pest or weed control at 250 g/ha: 250 g ai/ha
Summary of the method: as §1

corn (Zea mays) [5] = test: Test G Pre-Emergence Protocol; conditions: Zea mays, pre-emergence, 312 h, evaluated after 13 days; for plant injury at 15.625 g/ha: 15.625 g ai/ha; for plant injury at 15.625 g/ha / plant injury at 250 g/ha: read-out: Corn damage rating (100=total damage to plant; 0=no damage to plant); for plant injury at 62.5 g/ha: 62.5 g ai/ha, 100=total damage to plant, 0=no damage to plant, read-out: plant damage rating, Corn; for plant injury at 250 g/ha: 250 g ai/ha
Summary of the method: as §1

[6] = test system: giant foxtail (Setaria faberi); test: Test G Pre-Emergence Protocol; conditions: Setaria faberi, pre-emergence, 312 h, evaluated after 13 days; for pest or weed control at 15.625 g/ha: 15.625 g ai/ha; for pest or weed control at 15.625 g/ha / pest or weed control at 250 g/ha: read-out: Foxtail, Giant damage rating (100=total damage to plant; 0=no damage to plant); for pest or weed control at 62.5 g/ha: 62.5 g ai/ha, 100=total damage to plant, 0=no damage to plant, read-out: plant damage rating, Foxtail, Giant; for pest or weed control at 250 g/ha: 250 g ai/ha
Summary of the method: as §1

[7] = test system: barnyardgrass (Echinochloa crus-galli); test: Test G Post-Emergence Protocol; conditions: Echinochloa crus-galli, post-emergence, 312 h; for pest or weed control at 15.625 g/ha: 15.625 g ai/ha, evaluated after 13 days (100=total damage to plant; 0=no damage to plant), read-out: Barnyardgrass damage rating; for pest or weed control at 62.5 g/ha: 62.5 g ai/ha, read-out: Barnyardgrass damage rating (100=total damage to plant; 0=no damage to plant); for pest or weed control at 62.5 g/ha / pest or weed control at 250 g/ha: evaluated after 13 days; for pest or weed control at 250 g/ha: 250 g ai/ha, read-out: damage to plant, Barnyardgrass (100=total damage to plant; 0=no damage to plant)
Summary of the method: (§2)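 Pot-grown seedlings, 8 days old, raised in a glasshouse at 24/16 °C day/night with 14 h light and 65% humidity, were sprayed post-emergence with test compound in acetone/water (50:50) plus 0.5% Tween 20 at 15.625, 62.5 or 250 g/ha. Damage was scored visually 13 days later on a 0–100 scale (100 = total damage).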

[8] = test system: redroot pigweed (Amaranthus retroflexus); test: Test G Post-Emergence Protocol; conditions: Amaranthus retroflexus, post-emergence, 312 h; for pest or weed control at 15.625 g/ha: 15.625 g ai/ha, evaluated after 13 days (100=total damage to plant; 0=no damage to plant), read-out: Pigweed, Redroot damage rating; for pest or weed control at 62.5 g/ha: 62.5 g ai/ha, read-out: Pigweed, Redroot damage rating (100=total damage to plant; 0=no damage to plant); for pest or weed control at 62.5 g/ha / pest or weed control at 250 g/ha: evaluated after 13 days; for pest or weed control at 250 g/ha: 250 g ai/ha, read-out: damage to plant, Pigweed, Redroot (100=total damage to plant; 0=no damage to plant)
Summary of the method: as §2

[9] = test system: ivy-leaved morning glory (Ipomoea hederacea); test: Test G Post-Emergence Protocol; conditions: Ipomoea, post-emergence, 312 h; for pest or weed control at 15.625 g/ha: 15.625 g ai/ha, evaluated after 13 days (100=total damage to plant; 0=no damage to plant), read-out: Morningglory, Ivy-leaved damage rating; for pest or weed control at 62.5 g/ha: 62.5 g ai/ha, read-out: Morningglory, Ivy-leaved damage rating (100=total damage to plant; 0=no damage to plant); for pest or weed control at 62.5 g/ha / pest or weed control at 250 g/ha: evaluated after 13 days; for pest or weed control at 250 g/ha: 250 g ai/ha, read-out: damage to plant, Morningglory, Ivy-leaved (100=total damage to plant; 0=no damage to plant)
Summary of the method: as §2

[10] = test system: velvetleaf (Abutilon theophrasti); test: Test G Post-Emergence Protocol; conditions: Abutilon theophrasti, post-emergence, 312 h; for pest or weed control at 15.625 g/ha: 15.625 g ai/ha, evaluated after 13 days (100=total damage to plant; 0=no damage to plant), read-out: Velvetleaf damage rating; for pest or weed control at 62.5 g/ha: 62.5 g ai/ha, read-out: Velvetleaf damage rating (100=total damage to plant; 0=no damage to plant); for pest or weed control at 62.5 g/ha / pest or weed control at 250 g/ha: evaluated after 13 days; for pest or weed control at 250 g/ha: 250 g ai/ha, read-out: damage to plant, Velvetleaf (100=total damage to plant; 0=no damage to plant)
Summary of the method: as §2

corn (Zea mays) [11] = test: Test G Post-Emergence Protocol; conditions: Zea mays, post-emergence, 312 h; for plant injury at 15.625 g/ha: 15.625 g ai/ha, evaluated after 13 days (100=total damage to plant; 0=no damage to plant), read-out: Corn damage rating; for plant injury at 62.5 g/ha: 62.5 g ai/ha, read-out: Corn damage rating (100=total damage to plant; 0=no damage to plant); for plant injury at 62.5 g/ha / plant injury at 250 g/ha: evaluated after 13 days; for plant injury at 250 g/ha: 250 g ai/ha, read-out: damage to plant, Corn (100=total damage to plant; 0=no damage to plant)
Summary of the method: as §2

[12] = test system: giant foxtail (Setaria faberi); test: Test G Post-Emergence Protocol; conditions: Setaria faberi, post-emergence, 312 h; for pest or weed control at 15.625 g/ha: 15.625 g ai/ha, evaluated after 13 days (100=total damage to plant; 0=no damage to plant), read-out: Foxtail, Giant damage rating; for pest or weed control at 62.5 g/ha: 62.5 g ai/ha, read-out: Foxtail, Giant damage rating (100=total damage to plant; 0=no damage to plant); for pest or weed control at 62.5 g/ha / pest or weed control at 250 g/ha: evaluated after 13 days; for pest or weed control at 250 g/ha: 250 g ai/ha, read-out: damage to plant, Foxtail, Giant (100=total damage to plant; 0=no damage to plant)
Summary of the method: as §2

Structure (SMILES) | pest or weed control at 15.625 g/ha [1] [%] | pest or weed control at 62.5 g/ha [1] [%] | pest or weed control at 250 g/ha [1] [%] | pest or weed control at 15.625 g/ha [2] [%] | pest or weed control at 62.5 g/ha [2] [%] | pest or weed control at 250 g/ha [2] [%] | pest or weed control at 15.625 g/ha [3] [%] | pest or weed control at 62.5 g/ha [3] [%] | pest or weed control at 250 g/ha [3] [%] | pest or weed control at 15.625 g/ha [4] [%] | pest or weed control at 62.5 g/ha [4] [%] | pest or weed control at 250 g/ha [4] [%] | plant injury at 15.625 g/ha (corn (Zea mays) [5]) [%] | plant injury at 62.5 g/ha (corn (Zea mays) [5]) [%] | plant injury at 250 g/ha (corn (Zea mays) [5]) [%] | pest or weed control at 15.625 g/ha [6] [%] | pest or weed control at 62.5 g/ha [6] [%] | pest or weed control at 250 g/ha [6] [%] | pest or weed control at 15.625 g/ha [7] [%] | pest or weed control at 62.5 g/ha [7] [%] | also measured
CN1C[C@@H](c2cc(Cl)cc(C(F)(F)F)c2)[C@H](C(=O)Nc2ccccc2F)C1=O (racemic) [Compound 1414] | 20 | 70 | 80 | 0 | 0 | 0 | 0 | 0 | 20 | 0 | 0 | 0 | 0 | 20 | 50 | 60 | 80 | 80 | 50 | 50 | pest or weed control at 250 g/ha [7]: 60%; pest or weed control at 15.625 g/ha [8]: 10%; pest or weed control at 62.5 g/ha [8]: 0%; pest or weed control at 250 g/ha [8]: 30%; pest or weed control at 15.625 g/ha [9]: 0%; pest or weed control at 62.5 g/ha [9]: 30%; pest or weed control at 250 g/ha [9]: 30%; pest or weed control at 15.625 g/ha [10]: 0%; pest or weed control at 62.5 g/ha [10]: 0%; pest or weed control at 250 g/ha [10]: 0%; plant injury at 15.625 g/ha (corn (Zea mays) [11]): 20%; plant injury at 62.5 g/ha (corn (Zea mays) [11]): 50%; plant injury at 250 g/ha (corn (Zea mays) [11]): 80%; pest or weed control at 15.625 g/ha [12]: 70%; pest or weed control at 62.5 g/ha [12]: 70%; pest or weed control at 250 g/ha [12]: 80%
CN1C[C@@H](c2ccc(C(F)(F)F)cc2)[C@H](C(=O)Nc2cccc(Cl)n2)C1=O (racemic) [Compound 1606] | 0 | 20 | 60 | 0 | 0 | 0 | 0 | 0 | 10 | 0 | 0 | 0 | 0 | 0 | 10 | 0 | 60 | 90 | 20 | 40 | pest or weed control at 250 g/ha [7]: 50%; pest or weed control at 15.625 g/ha [8]: 40%; pest or weed control at 62.5 g/ha [8]: 40%; pest or weed control at 250 g/ha [8]: 100%; pest or weed control at 15.625 g/ha [9]: 0%; pest or weed control at 62.5 g/ha [9]: 0%; pest or weed control at 250 g/ha [9]: 30%; pest or weed control at 15.625 g/ha [10]: 0%; pest or weed control at 62.5 g/ha [10]: 0%; pest or weed control at 250 g/ha [10]: 60%; plant injury at 15.625 g/ha (corn (Zea mays) [11]): 0%; plant injury at 62.5 g/ha (corn (Zea mays) [11]): 0%; plant injury at 250 g/ha (corn (Zea mays) [11]): 0%; pest or weed control at 15.625 g/ha [12]: 40%; pest or weed control at 62.5 g/ha [12]: 70%; pest or weed control at 250 g/ha [12]: 80%
